From patent publication US10617769B2, “Bacterium-contained hydrogel and method of making the same” (TCI Co., Ltd., priority 2016, dated 2020)
Converted amounts (≈) assume the structure as drawn.

What was measured:
P. acnes = assay: Fermentation of PEG-monosaccharide polymers in solid agar medium with phenol red; assay type: cell-based, Propionibacterium acnes; conditions: compound (+), P. acnes added to solid agar medium
Experimental: (§1) The experimental method is described as follows: compound A and compound B were respectively added to the solid agar media, and S. epidermidis or P. acnes were added to the media, then the bacteria were incubated, and then the color of phenol red in the media were recorded.

S. epidermidis = assay: as above; assay type: cell-based, Staphylococcus epidermidis; conditions: compound (+), S. epidermidis added to solid agar medium
Experimental: as §1

USA300 [1] = conditions: in vitro and in vivo; stated as known; cited from earlier work
USA300 [2] = assay: Minimum bactericidal concentration (MBC) assay, anti-USA300 activity of SCFAs; assay type: cell-based, Staphylococcus aureus; conditions: USA300 10^6 CFU/mL, overnight incubation, tested 0.02 mM to 100 mM; for MBC: Staphylococcus aureus
Experimental: Experimental method: USA 300 (10^6 CFU/m L) were respectively incubated with different concentrations of butyric acid or acetic acid on 96-well microtiter plates overnight; the testing concentrations of acetic acid and butyric acid were from 0.02 mM to 100 mM, each well was respectively added 100 microliters of acetic acid or butyric acid with different concentrations. In the control groups, only PBS was added to the wells. After incubation, the USA300 was diluted 1:10^0 to 1:10^5 with PBS, 5 μl of the dilution was spread to the agar plate; after overnight incubation, colonies (CFU) on the algal plate were counted. MBC is defined as the degree of sterilization at 99.9% (greater than […] colony/mL).
Referring to FIG. 4A through FIG. 4D. FIG. 4A and FIG. 4C show the images of bacterial growth on culture plates. […] UD means undetectable.

## C#CCOCCOCCOCCOCCOC1OC(CO)C(O)C(O)C1O [Compound A, propargyl-PEG5-beta-D-glucose]
P. acnes
  Color of phenol red in the medium: Red
S. epidermidis
  Color of phenol red in the medium: Yellow

## C#CCOCCOCCOCCOCCOC1OC(COC(C)=O)C(OC(C)=O)C(OC(C)=O)C1OC(C)=O [Compound B, PEG5-tetra-Ac-beta-D-glucose]
P. acnes
  Color of phenol red in the medium: Red
S. epidermidis
  Color of phenol red in the medium: Yellow

## CCC(=O)O [propionic acid]
USA300 [1]
  Growth of USA300: suppress the growth of USA300

## CC(=O)O [acetic acid]
USA300 [2]
  MBC: 10 mM (≈ 601 µg/mL)
  Concentration for complete inhibition: 50 mM

## CCCC(=O)O [butyric acid]
USA300 [2]
  MBC: 10 mM (≈ 881 µg/mL)
  Concentration for complete inhibition: 50 mM
